Where “and” joins values, the source holds several entries; their conditions need not be identical. Equal values may be shown once. Inconclusive results and toxic doses are left out. Rule as the data show it: active = T/C of 150% or more; inactive = T/C below 125%.
Tested on: L1210 leukemia ip in BDF1 mice, survival T/C
Test: NCI In Vivo Anticancer Drug Screen. Data for tumor model L1210 Leukemia (intraperitoneal) in B6D2F1 (BDF1) mice
Conditions: endpoint: mean survival time, higher = longer survival
Procedure, shortened: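 Value reflects the ratio of survival in compound-treated mice to survival in vehicle-treated controls, with both groups carrying the same transplanted tumor.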

[1] = dose: 100.0 mg/kg/injection, schedule: Q04DX002 (ip), vehicle: Klucel (hydroxypropylcellulose) (HPC)
[2] = dose: 200.0 mg/kg/injection, schedule: Q04DX002 (ip), vehicle: Klucel (hydroxypropylcellulose) (HPC)
[3] = dose: 100.0 mg/kg/injection, schedule: Q01DX009 (ip), vehicle: Klucel (hydroxypropylcellulose) (HPC)
[4] = dose: 200.0 mg/kg/injection, schedule: Q01DX009 (ip), vehicle: Klucel (hydroxypropylcellulose) (HPC)
[5] = dose: 100.0 mg/kg/injection, schedule: Q01DX001 (ip), vehicle: carboxymethylcellulose (CMC)
[6] = dose: 200.0 mg/kg/injection, schedule: Q01DX001 (ip), vehicle: carboxymethylcellulose (CMC)
[7] = dose: 400.0 mg/kg/injection, schedule: Q01DX009 (ip), vehicle: Klucel (hydroxypropylcellulose) (HPC)
[8] = dose: 100.0 mg/kg/injection, schedule: Q01DX001 (ip), vehicle: Klucel (hydroxypropylcellulose) (HPC)

Measured: T/C

CCCCCCOC(=O)C(N)Cc1ccc(N(CCCl)CCCl)cc1 (stereo not drawn)
inactive: dose: 2.8 mg/kg/injection, schedule: Q01DX009 (ip), vehicle: other 110 % of control | dose: 5.6 mg/kg/injection, schedule: Q01DX001 (ip), vehicle: other 110 % of control | dose: 5.6 mg/kg/injection, schedule: Q01DX009 (ip), vehicle: other 106 % of control | dose: 11.25 mg/kg/injection, schedule: Q01DX001 (ip), vehicle: other 110 % of control | dose: 11.25 mg/kg/injection, schedule: Q01DX009 (ip), vehicle: other 116 % of control | dose: 22.5 mg/kg/injection, schedule: Q01DX001 (ip), vehicle: other 121 % of control

O=[N+]([O-])c1cc(/C=N/N2CCN(/N=C/c3ccc(Cl)c([N+](=O)[O-])c3)CC2)ccc1Cl
inactive: dose: 100.0 mg/kg/injection, schedule: Q01DX001 (ip), vehicle: saline 96 % of control | dose: 200.0 mg/kg/injection, schedule: Q01DX001 (ip), vehicle: saline 93 % of control | dose: 400.0 mg/kg/injection, schedule: Q01DX001 (ip), vehicle: saline 90 % of control

O=C1CC2OCC=C3CN4CCC56c7ccccc7N1C5C2C3CC46 (stereo not drawn) (tested in a mixture with another compound)
inactive: dose: 0.12 mg/kg/injection, schedule: Q04DX003 (ip), vehicle: saline + Tween-80 + alkali 102 % of control | dose: 0.12 mg/kg/injection, schedule: Q04DX003 (ip), vehicle: saline 104 % of control | dose: 0.19 mg/kg/injection, schedule: Q04DX003 (ip), vehicle: alcohol 106 % of control | dose: 0.19 mg/kg/injection, schedule: Q04DX003 (ip), vehicle: saline + Tween-80 + alkali 100 % of control | dose: 0.19 mg/kg/injection, schedule: Q04DX003 (ip), vehicle: saline 104 % of control | dose: 0.25 mg/kg/injection, schedule: Q04DX003 (ip), vehicle: Klucel (hydroxypropylcellulose) (HPC) 101 % of control | dose: 0.28 mg/kg/injection, schedule: Q04DX003 (ip), vehicle: saline + Tween-80 + alkali 98 % of control | dose: 0.28 mg/kg/injection, schedule: Q04DX003 (ip), vehicle: saline 104 % of control | dose: 0.39 mg/kg/injection, schedule: Q01DX009 (ip), vehicle: saline 98 % of control and 95 % of control | dose: 0.39 mg/kg/injection, schedule: Q04DX003 (ip), vehicle: alcohol 103 % of control | dose: 0.5 mg/kg/injection, schedule: Q04DX003 (ip), vehicle: Klucel (hydroxypropylcellulose) (HPC) 93 % of control | dose: 0.75 mg/kg/injection, schedule: Q01DX009 (ip), vehicle: Klucel (hydroxypropylcellulose) (HPC) 92 % of control | dose: 0.78 mg/kg/injection, schedule: Q01DX009 (ip), vehicle: saline 101 % of control and 110 % of control | dose: 0.78 mg/kg/injection, schedule: Q04DX003 (ip), vehicle: alcohol 103 % of control | dose: 0.78 mg/kg/injection, schedule: Q04DX003 (ip), vehicle: saline + alcohol 102 % of control | dose: 0.78 mg/kg/injection, schedule: Q04DX003 (ip), vehicle: saline 100 % of control | dose: 1.0 mg/kg/injection, schedule: Q04DX003 (ip), vehicle: Klucel (hydroxypropylcellulose) (HPC) 101 % of control | dose: 1.5 mg/kg/injection, schedule: Q01DX009 (ip), vehicle: Klucel (hydroxypropylcellulose) (HPC) 97 % of control | dose: 1.5 mg/kg/injection, schedule: Q04DX003 (ip), vehicle: Klucel (hydroxypropylcellulose) (HPC) 100 % of control | dose: 1.56 mg/kg/injection, schedule: Q01DX009 (ip), vehicle: saline 90 % of control and 100 % of control | dose: 1.56 mg/kg/injection, schedule: Q04DX003 (ip), vehicle: alcohol 93 % of control | dose: 1.56 mg/kg/injection, schedule: Q04DX003 (ip), vehicle: saline + alcohol 93 % of control | dose: 1.56 mg/kg/injection, schedule: Q04DX003 (ip), vehicle: saline 93 % of control | dose: 6.0 mg/kg/injection, schedule: Q04DX003 (ip), vehicle: Klucel (hydroxypropylcellulose) (HPC) 110 % of control

Cc1ccc(CS(=O)C(Cl)(Cl)c2ccc(C)cc2)cc1 (stereo not drawn)
inactive: [1] 97 % of control | [2] 94 % of control | dose: 400.0 mg/kg/injection, schedule: Q04DX002 (ip), vehicle: Klucel (hydroxypropylcellulose) (HPC) 97 % of control

O=C(O)c1c(Br)c(Br)c(Br)c(Br)c1C(=O)Nc1ccccc1C(F)(F)F
inactive: [3] 101 % of control | [4] 93 % of control

O=C(O)c1cc(I)c(OCc2ccccc2)c(I)c1
inactive: [5] 100 % of control | [6] 94 % of control | dose: 400.0 mg/kg/injection, schedule: Q01DX001 (ip), vehicle: carboxymethylcellulose (CMC) 96 % of control

[Cl][Hg][Cl].c1ccc(CSc2ccccc2)cc1
inactive: dose: 5.0 mg/kg/injection, schedule: Q01DX001 (ip), vehicle: carboxymethylcellulose (CMC) 105 % of control

CCCNC(=O)Oc1cccc2cccnc12
inactive: [3] 93 % of control and 95 % of control | [1] 97 % of control and 105 % of control | [4] 101 % of control and 112 % of control | [2] 102 % of control and 103 % of control | [7] 95 % of control

O=C(O)CSCCSCC(=O)O
inactive: dose: 12.5 mg/kg/injection, schedule: Q04DX002 (ip), vehicle: carboxymethylcellulose (CMC) 95 % of control | dose: 25.0 mg/kg/injection, schedule: Q04DX002 (ip), vehicle: carboxymethylcellulose (CMC) 97 % of control | dose: 50.0 mg/kg/injection, schedule: Q04DX002 (ip), vehicle: carboxymethylcellulose (CMC) 98 % of control | dose: 100.0 mg/kg/injection, schedule: Q01DX009 (ip), vehicle: saline with Tween-80 104 % of control | dose: 200.0 mg/kg/injection, schedule: Q01DX009 (ip), vehicle: saline with Tween-80 94 % of control and 91 % of control

BrCc1ccc(Br)cc1
inactive: [5] 96 % of control | [6] 91 % of control

CN(C)N=Nc1ccc(C(=O)N/N=C/c2ccc(I)cc2)cc1
inactive: dose: 75.0 mg/kg/injection, schedule: Q04DX003 (ip), vehicle: Klucel (hydroxypropylcellulose) (HPC) 101 % of control | dose: 150.0 mg/kg/injection, schedule: Q04DX003 (ip), vehicle: Klucel (hydroxypropylcellulose) (HPC) 97 % of control | dose: 300.0 mg/kg/injection, schedule: Q04DX003 (ip), vehicle: Klucel (hydroxypropylcellulose) (HPC) 89 % of control

CC(C)(C)c1cc(C(C)(C)[N+](C)(C)C)cc(C(C)(C)C)n1
inactive: dose: 50.0 mg/kg/injection, schedule: Q01DX001 (ip), vehicle: Klucel (hydroxypropylcellulose) (HPC) 102 % of control | [8] 90 % of control

CCC(c1ccc2cc(OC)ccc2c1)C(C(=O)O)C(=O)O (stereo not drawn)
inactive: dose: 50.0 mg/kg/injection, schedule: Q01DX009 (ip), vehicle: Klucel (hydroxypropylcellulose) (HPC) 96 % of control | [3] 107 % of control | [4] 96 % of control

CCOC(=O)C(Cc1ccccc1)NC(=O)N(CCCl)CCCl (stereo not drawn)
inactive: dose: 62.5 mg/kg/injection, schedule: Q01DX Z (ip), vehicle: water 97 % of control | dose: 125.0 mg/kg/injection, schedule: Q01DX Z (ip), vehicle: water 95 % of control | dose: 250.0 mg/kg/injection, schedule: Q01DX Z (ip), vehicle: water 106 % of control

O=C(NCCCl)n1cncn1
inactive: dose: 100.0 mg/kg/injection, schedule: Q01DX009 (ip), vehicle: acetone 100 % of control | dose: 100.0 mg/kg/injection, schedule: Q04DX003 (ip), vehicle: acetone 102 % of control | dose: 200.0 mg/kg/injection, schedule: Q01DX009 (ip), vehicle: acetone 92 % of control | dose: 200.0 mg/kg/injection, schedule: Q04DX003 (ip), vehicle: acetone 102 % of control | dose: 400.0 mg/kg/injection, schedule: Q01DX009 (ip), vehicle: acetone 103 % of control | dose: 400.0 mg/kg/injection, schedule: Q04DX003 (ip), vehicle: acetone 102 % of control

CSc1ccc(OC(=O)NC2CCCCC2)cc1C
inactive: [3] 92 % of control | dose: 100.0 mg/kg/injection, schedule: Q04DX003 (ip), vehicle: Klucel (hydroxypropylcellulose) (HPC) 93 % of control | [4] 97 % of control | dose: 200.0 mg/kg/injection, schedule: Q04DX003 (ip), vehicle: Klucel (hydroxypropylcellulose) (HPC) 111 % of control | [7] 93 % of control | dose: 400.0 mg/kg/injection, schedule: Q04DX003 (ip), vehicle: Klucel (hydroxypropylcellulose) (HPC) 95 % of control

COc1cc2cc(C)c(C)cc2cc1OC
inactive: [8] 98 % of control | [3] 103 % of control | dose: 200.0 mg/kg/injection, schedule: Q01DX001 (ip), vehicle: Klucel (hydroxypropylcellulose) (HPC) 101 % of control | [4] 110 % of control | dose: 400.0 mg/kg/injection, schedule: Q01DX001 (ip), vehicle: Klucel (hydroxypropylcellulose) (HPC) 98 % of control | [7] 109 % of control
